# Measured values taken from patent US8604070B2, “Use of inhibitors of the renin-angiotensin system” (FinVector Vision Therapies, Ltd., priority 1997, dated 2013).
# “Also recorded” adds a separate entry of the source.
# Experiments:
# [1] = Military recruits, 12 weeks training, randomised Losartan or placebo; type: in vivo, human; details: after 12 weeks training
# Text: Ninety military recruits were studied before and after military training of 12 weeks duration. These were randomised to receive the AT1-receptor antagonist Losartan or placebo.
# [2] = Cachectic CHF patients treated with Losartan: clinical status, body composition, strength, treadmill; type: in vivo, human
# Protocol: Patient 1 had cachexia due to chronic heart failure (CHF) (person, weight 50.0 kg, height 178 cm, previous weight loss 15.3 kg in 3 years=chronic weight loss). Patient 2 had CHF and a muscle myopathy suffering from idiopathic cachexia (person, weight 62 kg, height 180 cm, previous weight loss 11 kg in year=recent weight loss). Each was treated with Losartan (50 mg once daily). Clinical status and parameters of body composition, strength and treadmill exercise capacity were studies, at baseline and during follow-up. Both patients had evidence of CHF with impaired exercise capacity and impaired left ventricular function (LVEF<40%).
# Bioelectrical impedance analysis (patient 1 and 2) was performed in the erect position using a body fat analyser (TANITA TBF-305, Tanita Corporation, Illinois, USA). Lean and fat mass were automatically analysed based on equations supplied and programmed into the machine by the manufacturer. These equations are based upon a comparison with measurements in a health population.
# Dual energy X-ray absorptiometry (DEXA) (patient 1): Whole body DEXA-scans were performed using a Lunar model DPXIQ total body scanner (Lunar Radiation Company, Madison, Wisc., USA, Lunar system software version 4.3c). The subject was at each time point scanned rectilinearly from head to toe. A scan takes less than 20 min. The mean radiation dose per scan is reported to be about 0.75 μSv (53), about 1/50th of a normal chest X-ray. The DEXA method can be used to obtain from body density analyses values of fat tissue mass, lean tissue mass. The technical details of DEXA, performance and segment demarcation have been described (54,55). The error of lean tissue measurements is […] and of fat tissue measurements <5% (56).
# Treadmill exercise test (Patients 1 and 2): The patients underwent symptom limited treadmill exercise testing. A standard Bruce protocol with the addition of a “stage 0” consisting of 3 min at a speed of 1 mile per hour with a 5% gradient was used. The patients breathed through a one-way valve connected to a respiratory mass spectrometer (Amis 2000, Odense, Denmark) and minute ventilation, oxygen consumption and carbon dioxide production were calculated on line every 10 seconds using a standard inert gas dilution technique. Patients were encouraged to exercise to exhaustion. Exercise time and oxygen consumption at peak exercise adjusted for total body weight (peak V02 in ml/kg/min) were measured as an index of the exercise capacity.
# Assessment of quadriceps muscle strength (Patients 1 and 2): The subjects were seated in a rigid frame, with the legs hanging freely. An inelastic strap attached the ankle to a pressure transducer. The recording (Multitrace 2, §, Jersey, Channel Islands) from the pressure transducer was used to assess strength and to provide visual feedback to the subject. […] The best of three voluntary contractions on each leg, with a rest period of at least one minute in-between, was taken to represent the maximal voluntary quadriceps muscle strength of the right and left leg, respectively.
# [3] = human skeletal muscle; cited from earlier work
# [4] = test system: renin gene expression; details: captopril administration; cited from earlier work
# [5] = Re-analysis of SOLVD treatment trial: cardiac cachexia and survival; type: in vivo, human
# Text: The SOLVD treatment study (57) was a randomized, double-blind, and placebo-controlled trial investigating the effects of enaiapril treatment in clinically stable patients with a LVEF of 35% or less and evidence of overt congestive heart failure. The precis e details of study organisation, inclusion criteria, run-in period (2 to 7 days) and stabilization period (14 to 17 days), randomisation, treatment titration and follow-up have been reported previously (57). Based also on data not otherwise available, the results have been re-analysed, restricted to subjects who participated in the SOLVD treatment trial, who had been free of edema at baseline, who had survived for at least 4 months thereafter, who had weight measurements at baseline and from at least one follow-up visit at 4 months or later.
# Of the 2082 patients, 1055 patients were randomised to treatment with enalapril (2.5 to 20 mg per pay) and 1027 patients to treatment with placebo. Body weight at baseline and during follow-up were measured per protocol. Body height was not recorded.
# Comparison of means between groups was carried out using an unpaired t-test. Comparison of proportions between groups was made by employing the chi-square test. […] To address the question of whether or not ACE inhibitors influence the risk of first occunence of cachexia, the cumulative incidence of cachexia in the two treatment groups was plotted, and analysed employing the log-rank statistic (59). In the analysis of first occunence of cardiac cachexia, at any given follow-up visit, absence of information on cardiac cachexia (i.e. weight not documented at this visit) is treated as censored. The effect of cardiac cachexia on survival is assessed using Cox proportional hazard analysis (58). For these analyses, cardiac cachexia is treated as a time-dependent covariate. The assessment of cardiac cachexia at 4, 8, and 12 months was used in the analysis. These are the time points in the follow-up period with relatively high proportion of complete information on cachexia status.
# The primary analysis was intention-to-treat. Statistical significance is claimed at a computed p-value <0.05 (two-sided testing). Estimates of effects are provided along with their 95% confidence intervals. Results are adjusted for a priori identified prognostic factors such as age, gender, NYHA functional class, LVEF (up to or more than 25%), and treatment status (enalapril vs placebo, in the case of assessing the effect of cardiac cachexia on survival).
# [6] = test system: rat cardiomyocytes; experiment: Mitochondrial membrane potential (ΔΨm) by Rh123 flow cytometry; type: cell-based; details: 1 μM, pre-treatment for 36 hours
# Text: (§1) It is based on observation of the potential difference (ΔΨm) across the inner mitochondrial membrane that is generated by the extrusion of protons to the outside of the mitochondrion during the transport of electrons from electron-carrying coenzymes to molecular oxygen. Part of the energy stored in ΔΨm is utilised to support the synthesis of most of the ATP derived from aerobic metabolism. Thus, ΔΨm is an indicator of the energisation state of the mitochondrion, and also of the efficiency of oxygen utilisation to generate chemical energy. To investigate whether some of the therapeutic properties of ACE inhibitors could be accounted for by an increase in ΔΨm, this parameter was examined in rat cardiomyocytes, following pre-treatment with the ACE inhibitor lisinopril.
# More particularly, cardiomyocytes were isolated from new-born Sprague-Dawley rats hearts and maintained in 30 mm tissue culture dishes in the presence of DMEM supplemented with 1% foetal calf serum at 37° C. in a humidified 5% CO2 atmosphere. […]
# To measure ΔΨm, the mitochondrial-specific probes rhodamine 123 (Rh123) and 5,5′,6,6′-tetrachloro-1,1′,3,3′-tetraethylbenzimidazolocarbocyanine iodide (JC-1) were used. […] Data were acquired and analysed using Lysis II software (Becton Dickinson).
# [7] = test system: rat cardiomyocytes; experiment: Mitochondrial membrane potential (ΔΨm) by JC-1 flow cytometry; type: cell-based; details: 1 μM
# Text: as §1
# More particularly, cardiomyocytes were isolated from new-born Sprague-Dawley rats hearts and maintained in 30 mm tissue culture dishes in the presence of DMEM supplemented with 1% foetal calf serum at 37° C. in a humidified 5% CO2 atmosphere. For experiments, cultures were treated with 1 μM lisinopril or with an equivalent amount of vehicle for various lengths of time, before analysis of ΔΨm.
# To measure ΔΨm, the mitochondrial-specific probes rhodamine 123 (Rh123) and 5,5′,6,6′-tetrachloro-1,1′,3,3′-tetraethylbenzimidazolocarbocyanine iodide (JC-1) were used. Cells were incubated for 15 min with 2.5 μM Rh123 or for 10 min with […] JC-1 (Molecular Probes) in fresh culture medium, at 37° C. and 5% CO2. […] Data were acquired and analysed using Lysis II software (Becton Dickinson).
# JC-1 is a more reliable and sensitive fluorescent probe for assessing changes in ΔΨm. At low concentrations, JC-1 exists mainly in a monomeric form which is characterised by the emission of green fluorescence. […] These aggregates are characterized by the emission of red fluorescence. Thus, an increase in the red to green fluorescence ratio indicates an increase in ΔΨm. […] Thus, the ratio of red to green fluorescence (□) increased as the time of incubation with lisinopril progressed.
# [8] = 5 μg/kg/day, rats; cited from earlier work
# [9] = low dose, humans; cited from earlier work
# [10] = 2.5 mg; cited from earlier work
# [11] = rat hind limb; cited from earlier work
# [12] = 50 mg once daily, both patients
compound,measurement,setting,value
CCCCc1nc(Cl)c(CO)n1Cc1ccc(-c2ccccc2-c2nn[nH]n2)cc1 [Losartan],gain in VO2 max at anaerobic threshold,[1]; DD genotype,-1.8 ± 6.3 mL/min
same,gain in VO2 max at anaerobic threshold,[1]; II genotype,0.3 ± 6.3 mL/min
same,"exercise capacity (exercise time, peak VO2)",[2]; [12],improved
same,side-effects of treatment,[2]; [12],No side-effects of treatment were observed
same,quadriceps muscle strength,"[2]; 50 mg once daily, both patients, both legs",improved
same,improvement in NYHA symptom class,"[2]; 50 mg once daily, both patients, follow-up 126 and 83 days",1 NYHA symptom class
same,weight gain,"[2]; patient 1, 50 mg once daily, 126 days, lean and fat tissue gain",4.6 kg
same,weight course,"[2]; patient 2, 50 mg once daily, 83 days",stopping the process of weight loss
same,insulin sensitivity,[3],improves insulin sensitivity
C[C@H](CS)C(=O)N1CCC[C@H]1C(=O)O [captopril],increase in liver renin gene expression,[4],3 fold
CCOC(=O)[C@H](CCc1ccccc1)N[C@@H](C)C(=O)N1CCC[C@H]1C(=O)O [enalapril],"risk of developing cardiac cachexia, RR (crude effect of treatment allocation)","[5]; 2.5 to 20 mg per day vs placebo, CHF patients",0.81
same,patients with weight loss of at least 7.5% with subsequently recorded weights equal to or higher than baseline,[5]; enalapril group,6 patients
same,effect on survival,"[5]; independent of age, gender, NYHA class, LVEF, p<0.01",significantly beneficial effect on survival; also recorded: reduced the frequency of the risk of death
same,reduction of the risk of developing cardiac cachexia,[5]; overall,19%
NCCCC[C@H](N[C@@H](CCc1ccccc1)C(=O)O)C(=O)N1CCC[C@H]1C(=O)O [lisinopril],increase in Rh123 fluorescence,[6],about 30%
same,green fluorescence (JC-1 monomer),[7]; various lengths of time,corresponding decrease
same,red fluorescence (JC-1 aggregates),[7]; various lengths of time,progressive increase
same,ratio of red to green fluorescence,[7]; with time of incubation,increased
CCOC(=O)[C@H](CCc1ccccc1)N[C@@H](C)C(=O)N1[C@H](C(=O)O)C[C@@H]2CCC[C@@H]21 [ramipril],effect on systolic blood pressure,[8],no effect on systolic blood pressure
same,effect on systemic blood pressure,[9],without any recordable effect on systemic blood pressure
same,frequency of first-dose fall in blood pressure,[10],same frequency as is seen with placebo
"angiotensin II (DRVYIHPF; Angiotensin-2; UniProt P01019 25-32, looked up) [ATII]",O2 usage and twitch tension,[11],increases
